In the NIST ThermoML archive (doi:10.1021/je9003959):
± gives the expanded uncertainty stated by the source.

Assay: xn = mol fraction of the nth substance listed
Conditions: 101 kPa, Liquid; for viscosity: Capillary tube (Ostwald / Ubbelohde) method; for speed of sound: Cylindrical cavity resonance method

CCN1CCCC1=O [1-ethyl-2-pyrrolidinone] + O
Conditions | mass density [kg/m3] | speed of sound [m/s] | viscosity [mPa·s]
293 K, x1 = 0.022 | 1003.49 ± 1.3 | 1574.8 ± 4.2 | 1.593 ± 0.036
293 K, x1 = 0.05 | 1010.45 ± 1.4 | 1651.9 ± 2.4 | 2.368 ± 0.048
293 K, x1 = 0.1 | 1020.31 ± 1.5 | 1711.9 ± 1.3 | 4.149 ± 0.05
293 K, x1 = 0.2 | 1026.26 ± 1.6 | 1712.2 ± 1.4 | 6.159 ± 0.062
293 K, x1 = 0.3 | 1023.9 ± 1.6 | 1677.6 ± 1.5 | 6.189 ± 0.067
293 K, x1 = 0.4 | 1022.18 ± 1.7 | 1640.4 ± 1.6 | 5.349 ± 0.066
293 K, x1 = 0.5 | 1019.16 ± 1.7 | 1610.7 ± 1.7 | 4.506 ± 0.054
293 K, x1 = 0.6 | 1014.04 ± 1.7 | 1583.1 ± 1.8 | 3.639 ± 0.045
293 K, x1 = 0.7 | 1010.43 ± 1.7 | 1562.1 ± 1.9 | 3.13 ± 0.037
293 K, x1 = 0.8 | 1006.66 ± 1.7 | 1541.7 ± 1.9 | 2.671 ± 0.034
293 K, x1 = 0.9 | 1003.19 ± 1.8 | 1526.1 ± 2 | 2.458 ± 0.031
293 K, x1 = 1 | 1000.55 ± 1.8 | 1511.6 ± 2.1 | 2.133 ± 0.027
298 K, x1 = 0.022 | 1001.76 ± 1.2 | 1580 ± 3.8 | 1.433 ± 0.031
298 K, x1 = 0.05 | 1007.34 ± 1.3 | 1648.9 ± 2.1 | 2.047 ± 0.038
298 K, x1 = 0.1 | 1016.76 ± 1.4 | 1699.4 ± 1.3 | 3.418 ± 0.045
298 K, x1 = 0.2 | 1021.82 ± 1.6 | 1694.2 ± 1.4 | 4.849 ± 0.062
298 K, x1 = 0.3 | 1019.33 ± 1.6 | 1658.6 ± 1.5 | 5.029 ± 0.063
298 K, x1 = 0.4 | 1016.58 ± 1.6 | 1621.2 ± 1.6 | 4.386 ± 0.056
298 K, x1 = 0.5 | 1014.6 ± 1.6 | 1591.5 ± 1.7 | 3.856 ± 0.047
298 K, x1 = 0.6 | 1009.45 ± 1.6 | 1564 ± 1.8 | 3.244 ± 0.039
298 K, x1 = 0.7 | 1005.98 ± 1.6 | 1542.9 ± 1.9 | 2.836 ± 0.034
298 K, x1 = 0.8 | 1002.26 ± 1.7 | 1522.6 ± 1.9 | 2.43 ± 0.03
298 K, x1 = 0.9 | 998.84 ± 1.7 | 1507 ± 2 | 2.21 ± 0.028
298 K, x1 = 1 | 996.24 ± 1.8 | 1492.5 ± 2.1 | 2.022 ± 0.026
303 K, x1 = 0.022 | 999.83 ± 1.2 | 1583.9 ± 3.4 | 1.254 ± 0.026
303 K, x1 = 0.05 | 1002.82 ± 1.3 | 1645.1 ± 1.9 | 1.767 ± 0.031
303 K, x1 = 0.1 | 1013.12 ± 1.4 | 1686.7 ± 1.3 | 2.842 ± 0.035
303 K, x1 = 0.2 | 1017.34 ± 1.5 | 1675.8 ± 1.4 | 4.088 ± 0.045
303 K, x1 = 0.3 | 1014.71 ± 1.5 | 1639.3 ± 1.5 | 4.164 ± 0.048
303 K, x1 = 0.4 | 1012.16 ± 1.5 | 1601.7 ± 1.6 | 3.621 ± 0.043
303 K, x1 = 0.5 | 1010 ± 1.6 | 1572.1 ± 1.7 | 3.28 ± 0.038
303 K, x1 = 0.6 | 1004.1 ± 1.6 | 1544.6 ± 1.8 | 2.86 ± 0.034
303 K, x1 = 0.7 | 1001.5 ± 1.6 | 1523.6 ± 1.9 | 2.527 ± 0.03
303 K, x1 = 0.8 | 997.83 ± 1.7 | 1503.4 ± 1.9 | 2.218 ± 0.028
303 K, x1 = 0.9 | 994.48 ± 1.8 | 1487.9 ± 2 | 2.011 ± 0.025
303 K, x1 = 1 | 991.93 ± 1.9 | 1473.3 ± 2.1 | 1.832 ± 0.024
313 K, x1 = 0.022 | 995.35 ± 1.3 | 1588.3 ± 2.8 | 0.9966 ± 0.019
313 K, x1 = 0.05 | 997.46 ± 1.2 | 1634.8 ± 1.6 | 1.327 ± 0.022
313 K, x1 = 0.1 | 1005.63 ± 1.3 | 1660.4 ± 1.3 | 2.051 ± 0.027
313 K, x1 = 0.2 | 1008.28 ± 1.4 | 1639.1 ± 1.4 | 2.879 ± 0.034
313 K, x1 = 0.3 | 1005.38 ± 1.4 | 1600.7 ± 1.5 | 2.966 ± 0.035
313 K, x1 = 0.4 | 1001.82 ± 1.4 | 1562.8 ± 1.6 | 2.6 ± 0.031
313 K, x1 = 0.5 | 1000.71 ± 1.4 | 1533.3 ± 1.7 | 2.509 ± 0.029
313 K, x1 = 0.6 | 995 ± 1.6 | 1506 ± 1.8 | 2.262 ± 0.027
313 K, x1 = 0.7 | 992.48 ± 1.7 | 1485.3 ± 1.9 | 2.04 ± 0.025
313 K, x1 = 0.8 | 988.94 ± 1.8 | 1465.2 ± 1.9 | 1.777 ± 0.022
313 K, x1 = 0.9 | 985.71 ± 1.9 | 1449.9 ± 2 | 1.702 ± 0.021
313 K, x1 = 1 | 983.26 ± 2 | 1435.3 ± 2.1 | 1.621 ± 0.021
323 K, x1 = 0.022 | 989.91 ± 1.3 | 1588.3 ± 2.2 | 0.8044 ± 0.015
323 K, x1 = 0.05 | 991.01 ± 1.3 | 1622.3 ± 1.4 | 1.073 ± 0.014
323 K, x1 = 0.1 | 997.84 ± 1.3 | 1633.2 ± 1.3 | 1.358 ± 0.02
323 K, x1 = 0.2 | 999.06 ± 1.3 | 1602.1 ± 1.5 | 2.164 ± 0.029
323 K, x1 = 0.3 | 995.92 ± 1.4 | 1561.9 ± 1.6 | 2.234 ± 0.028
323 K, x1 = 0.4 | 992.73 ± 1.5 | 1523.7 ± 1.6 | 2.014 ± 0.023
323 K, x1 = 0.5 | 991.3 ± 1.5 | 1494.4 ± 1.7 | 1.986 ± 0.024
323 K, x1 = 0.6 | 985.81 ± 1.7 | 1467.5 ± 1.8 | 1.856 ± 0.022
323 K, x1 = 0.7 | 983.37 ± 1.8 | 1447.1 ± 1.9 | 1.67 ± 0.02
323 K, x1 = 0.8 | 979.96 ± 1.9 | 1427.3 ± 1.9 | 1.54 ± 0.019
323 K, x1 = 0.9 | 976.89 ± 2 | 1412.2 ± 2 | 1.435 ± 0.018
323 K, x1 = 1 | 974.56 ± 2.1 | 1398 ± 2.1 | 1.358 ± 0.018
